Key:
Experiment in all cases: relative viability (nuclei count vs DMSO), 5 days (fraction); higher = more cells survive
[1] = compound: CCC1=CN=CN=C1N2CCN(CC2)CC3=NC4=C(N3)C=C(C=C4)C(F)(F)F + CS(=O)(=O)CCNCc1ccc(-c2ccc3ncnc(Nc4ccc(OCc5cccc(F)c5)c(Cl)c4)c3c2)o1 [Lapatinib] (partner 2 µM)
Outline: (§1)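 A single step with final 0.05% Triton X-100, 1% formaldehyde and 1 ug/ml Hoechst fixed the cells and stained nuclei 5 days after treatment. Lung cancer cell lines in 1536-well plates had been treated by pin tool the day after seeding with one drug alone or a fixed anchor-drug dose plus five library-drug doses (not always all listed) in √10 steps, and nuclei were counted on 4× images. Relative viability is the ratio of nuclei in treated wells to nuclei in vehicle wells, taken as the median of duplicate plates.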

[2] = compound: CCn1c(-c2nonc2N)nc2cnc(Oc3cccc(NC(=O)c4ccc(OCCN5CCOCC5)cc4)c3)cc21 + Cc1nc(Nc2ncc(C(=O)Nc3c(C)cccc3Cl)s2)cc(N2CCN(CCO)CC2)n1 [Dasatinib] (partner 0.075 µM)
Outline: as §1

[3] = compound: CCn1c(-c2nonc2N)nc2cnc(Oc3cccc(NC(=O)c4ccc(OCCN5CCOCC5)cc4)c3)cc21 + CS(=O)(=O)CCNCc1ccc(-c2ccc3ncnc(Nc4ccc(OCc5cccc(F)c5)c(Cl)c4)c3c2)o1 [Lapatinib] (partner 2 µM)
Outline: as §1

[4] = compound: CCn1c(-c2nonc2N)nc2cnc(Oc3cccc(NC(=O)c4ccc(OCCN5CCOCC5)cc4)c3)cc21 + CC(=O)Nc1cccc(-n2c(=O)n(C3CC3)c(=O)c3c(Nc4ccc(I)cc4F)n(C)c(=O)c(C)c32)c1 [Trametinib] (partner 0.02 µM)
Outline: as §1

Row | Cell Line | relative viability ([1]; first compound 0.04 µM) | relative viability ([1]; first compound 0.1265 µM) | relative viability ([1]; first compound 1.265 µM) | relative viability ([1]; first compound 4 µM) | relative viability ([2]; first compound 0.04 µM) | relative viability ([2]; first compound 0.1265 µM) | relative viability ([2]; first compound 0.4 µM) | relative viability ([2]; first compound 1.265 µM) | relative viability ([2]; first compound 4 µM) | relative viability ([3]; first compound 0.04 µM) | relative viability ([3]; first compound 0.1265 µM) | relative viability ([3]; first compound 0.4 µM) | relative viability ([3]; first compound 1.265 µM) | relative viability ([3]; first compound 4 µM) | relative viability ([4]; first compound 0.04 µM) | relative viability ([4]; first compound 0.1265 µM) | relative viability ([4]; first compound 0.4 µM) | relative viability ([4]; first compound 1.265 µM) | relative viability ([4]; first compound 4 µM) | relative viability ([1]; first compound 0.4 µM)
1 | NCI-H647 | 1.27 | 1.04 | 0.802 | 1.09 | 0.145 | 0.0946 | 0.0784 | 0.122 | 0.0956 | 1.26 | 0.774 | 0.634 | 0.526 | 0.548 | 0.494 | 0.38 | 0.261 | 0.303 | 0.286 | 
2 | NCI-H2126 | 0.772 | 0.713 | 0.736 | 0.838 | 0.628 | 0.522 | 0.284 |  | 0.336 | 0.764 | 0.782 | 0.541 | 0.742 | 0.825 | 0.61 | 0.594 | 0.562 | 0.583 | 0.57 | 0.708
3 | NCI-H727 | 0.82 | 0.799 |  | 0.741 | 0.507 | 0.621 | 0.405 | 0.467 | 0.521 | 1.12 | 0.894 | 0.339 | 0.868 | 0.569 |  | 0.392 | 0.386 | 0.461 | 0.423 | 0.802
4 | EMC-BAC-2 | 0.889 | 0.864 | 0.743 | 0.982 | 0.305 | 0.244 | 0.134 | 0.161 | 0.154 | 0.931 | 0.955 | 0.543 | 0.645 | 0.588 | 0.905 | 0.922 | 0.826 | 0.401 | 0.445 | 0.86
5 | NCI-H1355 | 1 | 0.812 | 0.844 | 1.1 | 0.755 | 0.712 | 0.235 | 0.312 | 0.275 | 1.07 | 0.978 | 0.712 | 0.62 | 0.597 | 0.322 | 0.433 | 0.434 | 0.392 | 0.398 | 0.952
6 | NCI-H2347 | 1.06 | 0.793 | 0.828 | 1.1 | 0.402 | 0.436 | 0.286 | 0.374 | 0.349 | 0.833 | 0.911 | 0.704 | 0.446 | 0.536 | 0.261 | 0.279 | 0.298 | 0.238 | 0.262 | 0.985
7 | NCI-H1651 | 0.839 | 0.827 | 0.787 | 0.87 | 0.499 | 0.369 | 0.229 | 0.247 | 0.267 | 0.998 | 0.819 | 0.639 | 0.49 | 0.421 | 0.925 | 0.891 | 0.828 | 0.623 | 0.81 | 0.818
8 | NCI-H1975 | 1.16 | 0.824 | 0.739 | 0.846 | 0.309 | 0.268 | 0.186 | 0.18 | 0.142 | 0.778 | 0.729 | 0.477 | 0.435 | 0.331 | 0.261 | 0.256 | 0.219 | 0.154 | 0.176 | 0.851
9 | COR-L23 | 0.979 | 0.914 | 0.781 | 0.92 | 0.47 | 0.336 | 0.173 | 0.164 | 0.121 | 1.16 | 0.714 | 0.335 | 0.198 | 0.143 | 0.647 | 0.517 | 0.248 | 0.192 | 0.16 | 0.74
10 | LOU-NH91 | 0.761 | 0.794 | 0.644 | 0.844 | 0.524 | 0.454 | 0.312 | 0.273 | 0.304 | 0.817 | 0.77 | 0.537 | 0.518 | 0.517 | 0.751 | 0.697 | 0.617 | 0.543 | 0.487 | 0.77
11 | NCI-H460 | 1.09 | 0.973 | 0.812 | 0.936 | 0.467 | 0.288 | 0.154 | 0.136 | 0.112 | 1.93 | 0.994 | 0.656 | 0.202 | 0.299 | 0.132 | 0.203 | 0.0433 | 0.0407 | 0.0579 | 0.878
12 | NCI-H650 | 0.73 | 0.762 | 1.01 | 1.06 | 0.4 | 0.317 | 0.216 | 0.248 | 0.276 | 1.29 | 0.686 | 0.5 | 0.269 | 0.472 | 1.11 | 0.826 | 0.597 | 0.587 | 0.588 | 1.21
13 | NCI-H1915 | 0.927 | 0.89 | 0.957 | 1.06 | 0.33 | 0.3 | 0.236 | 0.186 | 0.188 | 1.11 | 0.949 | 0.956 | 0.611 | 0.387 | 0.267 | 0.31 | 0.309 | 0.227 | 0.221 | 0.995
14 | NCI-H1734 | 1.03 | 1.07 |  | 1.04 | 0.416 | 0.39 | 0.232 | 0.229 | 0.198 | 1.03 | 0.93 | 0.6 | 0.38 | 0.403 | 0.676 | 0.729 | 0.69 | 0.603 | 0.467 | 1.08
15 | NCI-H1993 | 0.777 | 0.842 | 0.8 | 0.747 | 0.596 | 0.572 | 0.5 | 0.552 | 0.569 | 0.797 | 0.798 |  | 0.754 | 0.734 | 0.441 | 0.427 | 0.464 | 0.439 | 0.509 | 0.69
16 | LK-2 | 0.947 | 0.797 | 0.498 | 0.985 | 0.39 | 0.493 | 0.208 | 0.178 | 0.252 | 1.2 | 0.95 | 0.605 | 0.706 | 0.949 | 0.753 | 0.969 | 0.65 | 0.666 | 0.899 | 0.838
17 | HCC-78 | 0.458 | 0.363 | 0.548 | 0.463 | 0.428 | 0.474 |  | 0.4 | 0.428 | 0.905 | 0.906 | 0.461 | 0.816 | 0.756 | 0.796 | 0.469 |  | 0.847 | 1.06 | 0.726
18 | NCI-H3122 | 1.11 | 0.992 | 1.03 | 0.961 | 0.955 | 0.82 | 0.651 | 0.554 | 0.525 | 1.1 | 1.04 | 0.891 | 0.804 | 0.691 | 0.175 | 0.189 | 0.254 | 0.226 | 0.247 | 1
19 | HOP-62 | 1.14 | 1.06 | 0.971 | 1.07 | 0.511 | 0.344 | 0.179 | 0.172 | 0.17 | 1.16 | 1.02 | 0.996 | 0.866 | 0.461 | 0.381 | 0.361 | 0.371 | 0.301 | 0.314 | 0.979
20 | NCI-H661 | 0.646 | 0.437 |  | 0.475 | 0.672 | 0.519 | 0.593 | 0.422 | 0.426 | 0.47 | 0.457 | 0.457 | 0.39 | 0.385 | 0.469 | 0.498 | 0.355 | 0.451 | 0.346 | 0.411
21 | NCI-H358 | 0.477 | 0.399 | 0.337 | 0.387 | 0.162 | 0.195 | 0.169 | 0.219 | 0.141 | 0.474 | 0.479 | 0.29 | 0.525 | 0.316 | 0.14 | 0.161 | 0.115 | 0.129 | 0.113 | 0.428
22 | BEN | 0.535 | 0.731 | 0.492 | 0.437 | 0.276 | 0.238 | 0.174 | 0.186 | 0.232 | 0.627 | 0.695 | 0.348 | 0.279 | 0.317 | 0.955 | 0.972 | 0.702 | 0.518 | 0.521 | 0.597
23 | SK-MES-1 | 0.487 | 0.432 | 0.43 | 0.428 | 0.429 | 0.256 | 0.224 | 0.244 | 0.172 | 0.493 | 0.434 | 0.404 | 0.453 | 0.401 | 0.534 | 0.519 | 0.402 | 0.391 | 0.328 | 0.749
24 | NCI-H1755 | 1.07 | 0.93 | 0.924 | 1.1 | 0.373 | 0.257 | 0.15 | 0.206 | 0.186 | 1.11 | 0.928 | 0.713 | 0.641 | 0.6 | 0.832 | 0.772 | 0.71 | 0.749 | 0.734 | 0.981
25 | NCI-H2023 | 0.716 | 0.765 | 0.527 | 0.763 | 0.519 | 0.424 | 0.257 | 0.294 | 0.232 | 1.25 | 0.797 | 0.515 | 0.555 | 0.373 | 0.708 | 0.652 | 0.474 | 0.317 | 0.237 | 0.749
26 | LC-2-ad | 1.07 | 0.898 | 0.945 | 0.925 | 0.957 | 0.717 | 0.343 | 0.309 | 0.479 | 0.992 | 0.968 | 0.578 | 0.435 | 0.412 | 0.991 | 0.952 | 0.983 | 0.712 | 0.623 | 0.899
27 | NCI-H1666 | 0.625 | 0.579 | 0.544 | 0.616 | 0.788 | 0.617 | 0.442 | 0.28 | 0.278 | 0.792 | 0.777 | 0.592 | 0.498 | 0.329 | 0.95 | 1.09 | 0.851 | 0.582 | 0.528 | 0.482
